US20130053387A1, “DESAZADESFERROTHIOCIN AND DESAZADESFERROTHIOCIN POLYETHER ANALOGUES AS METAL CHELATION AGENTS” (FerroKin BioScience, Inc., priority 2010, published 2013)
Converted amounts (≈) assume the structure as drawn. Like-named read-outs stand apart in the source and are kept apart here.

Tests used:
[1] = set-up: concentration or dose not given beside the values; settings: cited from earlier work
[2] = set-up: concentration or dose not given beside the values; settings: cited from earlier work; remark: listed apart in the source
physchem [3] = assay: physchem
Description: Measurements were taken via LC/MS.
Stir bars were removed and samples centrifuged at 15,000 g for 15 minutes to separate the phases, and pipette and syringe were used to remove the upper (octanol) and lower (buffer) phases to empty tubes, respectively. Aliquots of 5 ni, were taken from upper phases and diluted with 495 ni, of methanol. Aliquots of 50 ni, were taken from lower phases and diluted with 450 ni, of methanol. Reference solutions of progesterone or metopolol were also prepared and tested as standards.

[4] = Solubility determination in PBS by LC/MS/MS; settings: for solubility at 2 h: kinetic from dmso stock
physchem [5] = settings: 25 °C, kinetic from dmso stock
[6] = rats, 300 μmol/kg intraperitoneally immediately after uranyl acetate; cited from earlier work
[7] = PBS pH 4.0, 25 °C, pH 4, aqueous buffer
[8] = PBS pH 7.4, 25 °C, pH 7.4, aqueous buffer

| Structure (SMILES) | logD at 1 h (physchem [3]; pH 7.4) | solubility at 2 h [4, 7] | solubility at 2 h [4, 8] | Rodent ICE [1] | also measured |
| --- | --- | --- | --- | --- | --- |
| COCCOCCOCCOc1cccc(C2=N[C@@](C)(C(=O)O)CS2)c1O [Example E, (S)-2-(2-hydroxy-3-(2-(2-(2-methoxyethoxy)ethoxy)ethoxy)phenyl)-4-methyl-4,5-dihydrothiazole-4-carboxylic acid] |  |  |  | 10.6 ± 4.4%b | Primate ICE [2]: 23.0 ± 4.1% |
| COCCOCCOc1ccc(C2=NC(C)(C(=O)O)CO2)c(O)c1 (centres unmarked) [Example 1, 2-(2-hydroxy-4-(2-(2-methoxyethoxy)ethoxy)phenyl)-4-methyl-4,5-dihydrooxazole-4-carboxylic acid] | -1.39 | 309 µM (≈ 105 µg/mL) | 312 µM (≈ 106 µg/mL) |  |  |
| COCCOCCOc1cccc(C2=N[C@@](C)(C(=O)O)CS2)c1O [Example D, (S)-2-(2-hydroxy-3-(2-(2-methoxyethoxy)ethoxy)phenyl)-4-methyl-4,5-dihydrothiazole-4-carboxylic acid] |  |  |  | 15.1 ± 2.0% | Primate ICE [2]: 22.5 ± 6.4% |
| CC(=O)[C@H]1CC[C@H]2[C@@H]3CCC4=CC(=O)CC[C@]4(C)[C@H]3CC[C@]12C [progesterone] |  |  |  |  | logD at 1 h (physchem [3]): 3.71 |
| COCCc1ccc(OCC(O)CNC(C)C)cc1 (centres unmarked) [metopolol] |  |  |  |  | LogD (physchem [3]; pH 7.4): −0.27 |
| COCCOCCOCCOCCOc1cccc(C2=N[C@@](C)(C(=O)O)CS2)c1O [Example F, (S)-2-(3-(2,5,8,11-tetraoxamidecan-13-yloxy)-2-hydroxyphenyl)-4-methyl-4,5-dihydrothiazole-4-carboxylic acid] |  |  |  | 12.4 ± 1.7% | Primate ICE [2]: 9.6 ± 4.9% |
| COCCOCCOc1ccc(-n2ccc(C(=O)O)n2)c(O)c1 [Example 7, 1-(2-hydroxy-4-(2-(2-methoxyethoxy)ethoxy)phenyl)-1H-pyrazole-3-carboxylic acid] | -2.24 | 294 µM (≈ 94.7 µg/mL) | 297 µM (≈ 95.7 µg/mL) |  |  |
| O=C(O)Cc1ccccc1Nc1c(Cl)cccc1Cl [diclofenac] |  | 7.47 µM (≈ 2.21 µg/mL) |  |  | Solubility at pH 7.4 ([4]; PBS pH 7.4, 25° C., 2 hours, assay upper limit 300 μM): 273.38 μM |
| COCCOCCOCCOCCOc1ccc(C2=N[C@@](C)(C(=O)O)CS2)c(O)c1 [Example C, (S)-2-(4-(2,5,8,11-tetraoxamidecan-13-yloxy)-2-hydroxyphenyl)-4-methyl-4,5-dihydrothiazole-4-carboxylic acid] |  |  |  | 12.0 ± 1.5% | Primate ICE [2]: 9.8 ± 1.9% |

Second part, led by results:

| logD at 1 h (physchem [3]; pH 7.4) | solubility at 2 h [4, 7] | solubility at 2 h [4, 8] | Structure (SMILES) | Rodent ICE [1] | also measured |
| --- | --- | --- | --- | --- | --- |
| -1.14 |  |  | COCCOCCOc1ccc(C2=N[C@@](C)(C(=O)O)CS2)c(O)c1 [Example A, (S)-2-(2-hydroxy-4-(2-(2-methoxyethoxy)ethoxy)phenyl)-4-methyl-4,5-dihydrothiazole-4-carboxylic acid] | 26.7 ± 4.7% | solubility at 2 h (physchem [5]; pH 4, aqueous buffer): 309 µM (≈ 110 µg/mL); solubility at 2 h (physchem [5]; pH 7.4, aqueous buffer): 305 µM (≈ 108 µg/mL); Primate ICE ([2]; capsule): 26.3 ± 9.9%; Primate ICE ([2]; sodium salt): 28.7 ± 12.4% |
| -1.98 | 311 µM (≈ 119 µg/mL) | 311 µM (≈ 119 µg/mL) | COCCOCCOCCOc1cccc(C2=NC(C)(C(=O)O)CN2)c1O (centres unmarked) [Example 6, 2-(2-hydroxy-3-(2-(2-(2-methoxyethoxy)ethoxy)ethoxy)phenyl)-4-methyl-4,5-dihydro-1H-imidazole-4-carboxylic acid] |  |  |
| -2.13 | 313 µM (≈ 120 µg/mL) | 316 µM (≈ 121 µg/mL) | COCCOCCOCCOc1ccc(C2=NC(C)(C(=O)O)CN2)c(O)c1 (centres unmarked) [Example 4, 2-(2-hydroxy-4-(2-(2-(2-methoxyethoxy)ethoxy)ethoxy)phenyl)-4-methyl-4,5-dihydro-1H-imidazole-4-carboxylic acid] |  |  |
| -1.77 | 297 µM (≈ 114 µg/mL) | 291 µM (≈ 112 µg/mL) | COCCOCCOCCOc1ccc(C2=NC(C)(C(=O)O)CO2)c(O)c1 (centres unmarked) [Example 2, 2-(2-hydroxy-4-(2-(2-(2-methoxyethoxy)ethoxy)ethoxy)phenyl)-4-methyl-4,5-dihydrooxazole-4-carboxylic acid] |  |  |
| -1.45 | 307 µM (≈ 123 µg/mL) | 313 µM (≈ 125 µg/mL) | COCCOCCOCCOc1ccc(C2=N[C@@](C)(C(=O)O)CS2)c(O)c1 [Example B, (S)-2-(2-hydroxy-4-(2-(2-(2-methoxyethoxy)ethoxy)ethoxy)phenyl)-4-methyl-4,5-dihydrothiazole-4-carboxylic acid] | 5.5 ± 1.9% | Primate ICE [2]: 25.4 ± 7.4%; % Dose Cleared [6]: 22%; Uranium Excretion [6]: 626 ± 123 µg/kg; Uranium Excretion vs. Control [6]: 2.2 |
| -2.09 | 306 µM (≈ 104 µg/mL) | 311 µM (≈ 105 µg/mL) | COCCOCCOc1cccc(C2=NC(C)(C(=O)O)CN2)c1O (centres unmarked) [Example 5, 2-(2-hydroxy-3-(2-(2-methoxyethoxy)ethoxy)phenyl)-4-methyl-4,5-dihydro-1H-imidazole-4-carboxylic acid] |  |  |
| -2.14 | 300 µM (≈ 110 µg/mL) | 298 µM (≈ 109 µg/mL) | COCCOCCOCCOc1ccc(-n2ccc(C(=O)O)n2)c(O)c1 [Example 8, 1-(2-hydroxy-4-(2-(2-(2-methoxyethoxy)ethoxy)ethoxy)phenyl)-1H-pyrazole-3-carboxylic acid] |  |  |
| -1.87 | 302 µM (≈ 102 µg/mL) | 299 µM (≈ 101 µg/mL) | COCCOCCOc1ccc(C2=NC(C)(C(=O)O)CN2)c(O)c1 (centres unmarked) [Example 3, 2-(2-hydroxy-4-(2-(2-methoxyethoxy)ethoxy)phenyl)-4-methyl-4,5-dihydro-1H-imidazole-4-carboxylic acid] |  |  |
